Test results as given in the CheMixHub ionic liquid set.

Test: xn = mol fraction of the nth substance listed

CCCCCCCCCCCC[N+](C)(C)Cc1ccccc1.[Cl-] + NCC(=O)O + O
electrical conductivity [S/m], 101 kPa
Conditions	293.15 K	298.15 K	303.15 K	308.15 K
x2 = 0.0008873, x1 = 0.0002851	0.0824	0.0924	0.103	0.116
x2 = 0.0008873, x1 = 0.0003053	0.0856	0.0961	0.107	0.12
x2 = 0.0008873, x1 = 0.0003201	0.0879	0.0988	0.11	0.124
x2 = 0.0008874, x1 = 0.0001939	0.0676	0.0753	0.0835	0.0926
x2 = 0.0008874, x1 = 0.0002197	0.072	0.0803	0.0893	0.0992
x2 = 0.0008874, x1 = 0.0002434	0.0759	0.0848	0.0944	0.105
x2 = 0.0008874, x1 = 0.0002654	0.0793	0.0888	0.099	0.11
x2 = 0.0008875, x1 = 5.836e-05	0.0233	0.0261	0.0289	0.0319
x2 = 0.0008875, x1 = 8.059e-05	0.0317	0.0355	0.0393	0.0433
x2 = 0.0008875, x1 = 0.0001014	0.0394	0.0441	0.0489	0.0538
x2 = 0.0008875, x1 = 0.0001212	0.0469	0.0524	0.0581	0.0639
x2 = 0.0008875, x1 = 0.0001444	0.0552	0.0617	0.0682	0.0751
x2 = 0.0008875, x1 = 0.0001686	0.0624	0.0695	0.077	0.085
x2 = 0.001759, x1 = 5.744e-05	0.0233	0.026	0.0289	0.0319
x2 = 0.001759, x1 = 7.9e-05	0.0314	0.0351	0.039	0.0429
x2 = 0.001759, x1 = 9.947e-05	0.0391	0.0437	0.0485	0.0534
x2 = 0.001759, x1 = 0.0001207	0.0469	0.0525	0.0582	0.064
x2 = 0.001759, x1 = 0.0001453	0.0558	0.0624	0.069	0.0758
x2 = 0.001759, x1 = 0.0001712	0.0628	0.0701	0.0775	0.0856
x2 = 0.001759, x1 = 0.0001971	0.0678	0.0758	0.0841	0.0931
x2 = 0.001759, x1 = 0.0002216	0.072	0.0806	0.0896	0.0995
x2 = 0.001759, x1 = 0.0002442	0.0758	0.0849	0.0946	0.105
x2 = 0.001759, x1 = 0.000265	0.079	0.0888	0.099	–
x2 = 0.001759, x1 = 0.000284	0.0821	0.0923	0.103	–
x2 = 0.001759, x1 = 0.0003018	0.0849	0.0956	0.107	–
x2 = 0.001759, x1 = 0.0003141	0.087	0.098	0.11	–

CCCC[N+](CCCC)(CCCC)CCCC.[Cl-] + NCCCO
viscosity [mPa·s], 101.3 kPa
Conditions	293.15 K	298.15 K	303.15 K	308.15 K	313.15 K	318.15 K	323.15 K	328.15 K	333.15 K
x2 = 0.8	101.4	77.4	57.8	44.6	36.2	28.9	23.4	19.4	16.1
x2 = 0.8571	70.7	53.9	41.7	32.8	26	21.1	17.3	14.2	12
x2 = 0.8889	60.2	46.1	35.7	28	22.5	18.3	15	12.5	10.7

CC[n+]1ccn(C)c1.[Cl-] + NCCNCCN + OCCO
viscosity [mPa·s], 100 kPa
Conditions	293 K	303 K	313 K	323 K	333 K	343 K	353 K
x2 = 0.25, x3 = 0.25	64.8	43.2	29.5	20.6	14.7	10.7	8
x2 = 0.333, x3 = 0.333	144	91.9	60.4	40.8	28.2	19.9	14.3
x2 = 0.4, x3 = 0.2	106	68.1	44.7	30.2	20.9	14.7	10.6
x2 = 0.429, x3 = 0.143	103	66.5	44.2	30.1	21	15	10.9
x2 = 0.5, x3 = 0.25	124	80.8	53.9	36.9	25.8	18.5	13.4

CCCC[N+](CCCC)(CCCC)CCCC.[Cl-] + N[C@@H](CO)C(=O)O
101 kPa
Conditions	electrical conductivity, 313.15 K [S/m]	electrical conductivity, 323.15 K [S/m]	electrical conductivity, 333.15 K [S/m]	electrical conductivity, 343.15 K [S/m]	electrical conductivity, 353.15 K [S/m]	viscosity, 313.15 K [mPa·s]	viscosity, 323.15 K [mPa·s]	viscosity, 333.15 K [mPa·s]	viscosity, 343.15 K [mPa·s]	viscosity, 353.15 K [mPa·s]
x2 = 0.09091	0.024	0.035	0.06	0.09	0.13	1110	490	260	141	86
x2 = 0.1	0.0298	0.0451	0.0631	0.093	0.136	1220	600	297	158	97
x2 = 0.1111	0.0102	0.0181	0.0425	0.0933	0.136	1000	480	237	135	83

CCCC[n+]1ccn(C)c1.[Br-] + N[C@@H](CO)C(=O)O + O
viscosity [mPa·s], 101.3 kPa
Conditions	293.15 K	298.15 K	303.15 K	308.15 K	313.15 K
x2 = 0, x1 = 0.0007203	–	–	–	–	0.673
x2 = 0.0003632, x1 = 0.00072	1.028	0.917	0.824	0.747	0.681
x2 = 0.0003661, x1 = 0.001439	1.051	0.94	0.847	0.77	0.704
x2 = 0.0007261, x1 = 0.0007198	1.033	0.922	0.829	0.751	0.684
x2 = 0.0007318, x1 = 0.001438	1.056	0.945	0.852	0.773	0.707
x2 = 0.001089, x1 = 0.0007195	1.037	0.927	0.833	0.755	0.688
x2 = 0.001097, x1 = 0.001438	1.061	0.95	0.856	0.778	0.711
x2 = 0.001451, x1 = 0.0007192	1.043	0.931	0.838	0.759	0.693
x2 = 0.001463, x1 = 0.001437	1.067	0.954	0.861	0.782	0.716
x2 = 0.001808, x1 = 0.001437	1.072	0.959	0.865	0.787	0.72
x2 = 0.001813, x1 = 0.000719	1.047	0.936	0.842	0.764	0.697
x2 = 0.002175, x1 = 0.0007187	1.053	0.941	0.847	0.768	0.702
x2 = 0.002192, x1 = 0.001436	1.076	0.963	0.87	0.791	0.725
x2 = 0.002537, x1 = 0.0007185	1.057	0.946	0.851	0.773	0.706
x2 = 0.002557, x1 = 0.001436	1.082	0.968	0.874	0.796	0.729
